Measurements published in patent US20250214960A1, “COMPOUNDS HAVING ACTIVITY OF DEGRADING GSPT1 AND APPLICATION THEREOF” (SHANGHAI MEIZER PHARMACEUTICALS CO., LTD., priority 2021, published 2025).
Read-outs that look alike come from different tables or passages of the source.

Assays:
Type in all cases: cell-based
[1] = tested on: Jeko-1 cells; experiment: CCK8 method, inhibition of Jeko-1 cell proliferation; conditions: Homo sapiens; Jeko-1, 72 hours; read-out: Cellular proliferation inhibition IC50
Procedure: Test Example 3: CCK8 Method for Detecting Inhibition of Jeko-1 Cell Proliferation by Compound of Formula
Cell culture: The Jeko-1 cell line (human lymphoma cells) was cultured in RPMI-1640 complete medium containing […] and 1% penicillin streptomycin, and incubated in an incubator at 37° C., 5% CO2, and saturated humidity.
Cell laying: Jeko-1 cells in logarithmic growth phase was taken, centrifuged, and an appropriate amount of complete culture medium was added to obtain a single-cell suspension, a hemocytometer was used for cell counting, and a cell suspension of 1.5×10^5 cells/mL was prepared, the cells were inoculated into a 96 well culture plate at a rate of 100 μL cell suspension per well and incubated in a CO2 cell incubator for 24 hours.
CCK-8 detection: 72 hours after administration, 10% CCK-8 solution was added to each well, placed in a CO2 cell culture incubator, and incubated for 1-4 hours. The absorbance of each well was measured using a microplate reader at 450 nm.
Calculation of cellular proliferation inhibition rate:
Cellular proliferation inhibition rate (%)=[(Ac−As)/(Ac−Ab)]×100% • As: absorbance in experimental wells (including cells, culture medium, CCK-8 solution, and drug solution) • Ac: absorbance in control wells (including cells, culture medium, CCK-8 solution, without drugs) • Ab: absorbance in blank wells (including culture medium, CCK-8 solution, without cells or drugs)

[2] = target: T1, GSPT1 protein (Homo sapiens, UniProt P15170+Q96SW2); experiment: Western blot detection of degradation activity of GSPT1 protein in Jeko-1 cells; conditions: JeKo-1, 24 h, read-out: GSPT1 degradation rate (%)
T1 construct: endogenous in cells; host or cells: Jeko-1
T1 sequence (P15170 whole entry): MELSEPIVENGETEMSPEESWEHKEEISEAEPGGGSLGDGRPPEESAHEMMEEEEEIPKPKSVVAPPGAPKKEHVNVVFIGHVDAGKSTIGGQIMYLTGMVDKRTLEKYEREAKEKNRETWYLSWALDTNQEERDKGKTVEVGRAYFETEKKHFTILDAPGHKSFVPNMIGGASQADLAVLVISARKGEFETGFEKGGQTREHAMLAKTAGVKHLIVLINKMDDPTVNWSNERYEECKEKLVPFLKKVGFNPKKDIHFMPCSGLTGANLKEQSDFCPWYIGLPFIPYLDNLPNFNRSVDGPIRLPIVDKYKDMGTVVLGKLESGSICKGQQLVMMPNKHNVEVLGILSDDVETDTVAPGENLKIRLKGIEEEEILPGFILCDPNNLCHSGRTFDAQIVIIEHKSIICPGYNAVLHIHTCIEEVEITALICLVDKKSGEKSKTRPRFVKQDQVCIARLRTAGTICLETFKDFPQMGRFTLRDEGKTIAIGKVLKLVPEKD
T1 sequence (Q96SW2 whole entry): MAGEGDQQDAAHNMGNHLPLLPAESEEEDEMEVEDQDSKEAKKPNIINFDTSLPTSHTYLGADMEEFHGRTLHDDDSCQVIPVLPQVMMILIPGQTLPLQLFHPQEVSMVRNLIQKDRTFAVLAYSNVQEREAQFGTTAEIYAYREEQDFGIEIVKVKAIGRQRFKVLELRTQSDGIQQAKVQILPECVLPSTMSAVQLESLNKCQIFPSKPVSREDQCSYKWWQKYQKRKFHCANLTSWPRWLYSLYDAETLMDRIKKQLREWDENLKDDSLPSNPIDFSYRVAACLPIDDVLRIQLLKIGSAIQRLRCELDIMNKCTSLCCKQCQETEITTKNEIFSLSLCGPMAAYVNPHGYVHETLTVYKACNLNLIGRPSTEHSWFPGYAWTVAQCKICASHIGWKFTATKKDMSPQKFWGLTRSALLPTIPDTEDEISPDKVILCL
T1 sequence (Q16531 whole entry partner): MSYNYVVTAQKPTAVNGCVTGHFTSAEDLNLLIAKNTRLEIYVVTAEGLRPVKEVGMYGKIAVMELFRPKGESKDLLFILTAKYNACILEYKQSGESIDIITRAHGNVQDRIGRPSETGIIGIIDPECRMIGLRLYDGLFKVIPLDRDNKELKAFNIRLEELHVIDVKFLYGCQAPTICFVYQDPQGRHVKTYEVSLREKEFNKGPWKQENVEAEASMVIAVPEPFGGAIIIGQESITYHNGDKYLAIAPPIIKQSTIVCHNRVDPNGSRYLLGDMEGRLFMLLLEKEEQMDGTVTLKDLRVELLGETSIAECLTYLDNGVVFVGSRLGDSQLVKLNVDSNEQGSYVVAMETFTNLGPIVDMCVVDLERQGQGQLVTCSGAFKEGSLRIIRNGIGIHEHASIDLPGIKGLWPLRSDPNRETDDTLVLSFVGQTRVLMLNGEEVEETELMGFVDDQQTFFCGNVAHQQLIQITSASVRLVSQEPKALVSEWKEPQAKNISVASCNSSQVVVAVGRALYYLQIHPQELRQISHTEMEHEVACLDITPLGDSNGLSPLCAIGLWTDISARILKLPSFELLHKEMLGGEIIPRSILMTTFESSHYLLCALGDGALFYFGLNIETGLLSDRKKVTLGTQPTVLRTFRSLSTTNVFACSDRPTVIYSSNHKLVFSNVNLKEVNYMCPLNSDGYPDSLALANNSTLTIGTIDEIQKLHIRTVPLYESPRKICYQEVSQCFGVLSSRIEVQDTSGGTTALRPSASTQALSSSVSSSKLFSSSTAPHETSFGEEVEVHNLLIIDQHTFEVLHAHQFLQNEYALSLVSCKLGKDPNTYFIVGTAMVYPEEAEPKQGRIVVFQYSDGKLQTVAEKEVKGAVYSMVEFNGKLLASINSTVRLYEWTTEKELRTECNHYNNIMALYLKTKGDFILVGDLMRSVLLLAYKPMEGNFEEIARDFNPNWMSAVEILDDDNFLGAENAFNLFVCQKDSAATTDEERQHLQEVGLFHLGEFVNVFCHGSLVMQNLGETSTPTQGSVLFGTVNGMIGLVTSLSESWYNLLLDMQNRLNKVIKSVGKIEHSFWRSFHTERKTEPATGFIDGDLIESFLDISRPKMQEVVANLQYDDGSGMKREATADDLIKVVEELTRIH
Procedure: Test Example 1: Western Blot Detection of Degradation Activity of GSPT1 Protein by the Compounds
Cell line: Jeko-1 cell line was cultured with an RPMI1640 media containing 20% fetal bovine serum in an incubator at 37° C., 5% CO2, and saturated humidity.
DMSO control group and test compound (concentration shown in the table below) were set up, after processing for 24 hours, the cells were collected, pre-cooled cell lysate was added and left on ice for 10 minutes. The total protein of the cells was extracted, and the protein concentration was measured and quantified using the BCA method. Routine gel preparation, sample loading, electrophoresis were conducted, then the membrane was transferred, and sealed, wherein the primary antibody was diluted with a blocking solution at 1:500-5000. The membrane was immersed in the diluted primary antibody and incubated overnight at 4° C. After rinsing, the secondary antibody was diluted with a sealing solution at 1:10000-20000, the membrane was immersed in the diluted secondary antibody, and incubated at room temperature for 45 minutes. After rinsing, the results were tested on ODYSSEY (Li-COR). GAPDH was used as an internal reference control.
Image J software was used to perform gray level analysis on each band and the degradation rate of GSPT1 protein by the compounds was calculated.

[3] = tested on: HL-60 cells; experiment: CTG method, inhibition of HL-60 cell proliferation; conditions: Homo sapiens; HL-60, 72 hours; read-out: Cellular proliferation inhibition IC50
Procedure: (§1) Test Example 2: CTG Method for Detecting the Inhibitory Effect of Compounds of Formula on the Proliferation of HNT 34 or HL-60 Cells
(§2) HNT-34 or HL-60 cells were taken and cultured in RPMI1640 medium containing 20% fetal bovine serum. The cells were inoculated on a 96 well plate, with 1×10^4 cells per well, and incubated at 37° C. in a […] incubator. After adding the test compound, it was incubated for 72 hours. Then an appropriate amount of CTG reagent was added, the luminescence value was measured, and the inhibition rate was calculated.

[4] = tested on: HNT-34 cells; experiment: CTG method, inhibition of HNT-34 cell proliferation; conditions: HNT-34, 72 hours; read-out: Cellular proliferation inhibition IC50
Procedure: as §1, §2

| inhibition at 0.1 µM ([2]; 100 nM, Jeko-1 cells, 24 hours) | inhibition at 10 µM ([2]; 10 μM, Jeko-1 cells, 24 hours) | IC50 [3] | Compound | IC50 [1] | IC50 [4] | inhibition at 0.1 µM [2] | inhibition at 10 µM [2] |
| --- | --- | --- | --- | --- | --- | --- | --- |
| 100% | 100% |  | CC(C)(C)OC(=O)NC(C(=O)NCc1ccc2c(c1)CN(C1CCC(=O)NC1=O)C2=O)c1ccccc1F (stereo not drawn) [Compound 5-5, Tert butyl (2-((2-(2,6-dioxypiperidin-3-yl)-1-oxoisoidoline-5-yl)methyl)amino)-1-(2-fluorophenyl)-2-oxoethyl) carbamate] | 0.2 nM |  |  |  |
| 52% | 80% | 35.4 nM | CC(C)CC(CNC(=O)OC(C)(C)C)C(=O)NCc1ccc2c(c1)CN(C1CCC(=O)NC1=O)C2=O (stereo not drawn) [Compound 5-33] |  | 32.7 nM |  |  |
| 97.8% | 99.5% |  | CC(C)(C)OC(=O)N[C@@H](Cc1ccccc1)C(=O)NCc1ccc2c(c1)CN(C1CCC(=O)NC1=O)C2=O (stereo partly drawn) [Compound 5-37, Tert butyl ((2S)-1-(2-(2,6-dioxypiperidin-3-yl)-1-oxoisoindoline-5-yl)methyl) amino)-1-oxo-3-phenylprop-2-yl) carbamate] | 0.6 nM |  |  |  |
| 96.9% | 96.7% |  | CC(C)(C)OC(=O)NCC(C(=O)NCc1ccc2c(c1)CN(C1CCC(=O)NC1=O)C2=O)c1ccc(Cl)cc1 (stereo not drawn) [Compound 5-41, Tert butyl (2-(4-chlorophenyl)-3-((2-(2,6-dioxypiperidin-3-yl)-1-oxoisoindoline-5-yl)methyl)amino)-3-oxopropyl) carbamate] | 0.04 nM |  |  |  |
| 90.6% | 93.6% | 8.3 nM | CC(C)(C)OC(=O)N[C@@H](CC1CCCCC1)C(=O)NCc1ccc2c(c1)CN(C1CCC(=O)NC1=O)C2=O (stereo partly drawn) [Compound 5-46, Tert butyl ((2S)-3-cyclohexyl-1-(2-((2,6-dioxopyridin-3-yl)-1-oxoisoidoline-5-yl)methyl)amino)-1-oxopropan-2-yl) carbamate] | 0.2 nM | 3.7 nM |  |  |
| 94.9% | 96.9% | 6.9 nM | CN(C(=O)CC1CCCC1)[C@H](C(=O)NCc1ccc2c(c1)CN(C1CCC(=O)NC1=O)C2=O)c1ccccc1 (stereo partly drawn) [Compound 5-50] |  | 5.8 nM |  |  |
| 18.8% | 84.1% | 25.8 nM | CC(C)(C)OC(=O)N[C@H](C(=O)NCc1ccc2c(c1)CN(C1CCC(=O)NC1=O)C2=O)C1CCCCC1 (stereo partly drawn) [Compound 5-56, Tert butyl ((1S)-1-cyclohexyl-2-((2-(2,6-dioxopyridin-3-yl)-1-oxoisoidoline-5-yl)methyl)amino)-2-oxoethyl) carbamate] |  | 18 nM |  |  |
| 75% | 98.1% | 15 nM | CC(C)(C)OC(=O)N[C@H](C(=O)NCc1ccc2c(c1)CN(C1CCC(=O)NC1=O)C2=O)C1CCCC1 (stereo partly drawn) [Compound 5-57, Tert butyl ((1S)-1-cyclopentyl-2-((2-(2,6-dioxopyridin-3-yl)-1-oxoisoidoline-5-yl)methyl)amino)-2-oxoethyl) carbamate] |  | 7.5 nM |  |  |
| 79% | 97% | 25.2 nM | O=C1CCC(N2Cc3cc(CNC(=O)[C@H](CC4CCCCC4)NC(=O)CC4CCCC4)ccc3C2=O)C(=O)N1 (stereo partly drawn) [Compound 5-92, (2S)-3-cyclohexyl-2-(2-cyclopentylacetamido)-N-((2-(2,6-dioxypiperidin-3-yl)-1-oxoisoindoline-5-yl)methyl) propionamide] |  | 25.2 nM |  |  |
| 97% | 98% | 11 nM | CC[C@H](C)[C@@H](CC(=O)NCc1ccc2c(c1)CN(C1CCC(=O)NC1=O)C2=O)NC(=O)OC(C)(C)C (stereo partly drawn) [Compound 5-97, Tert butyl ((3R,4S)-1-((2-(2,6-dioxypiperidin-3-yl)-1-oxoisoidoline-5-yl)methyl)amino)-4-methyl-1-oxohexane-3-yl) carbamate] |  | 6.9 nM |  |  |

Second part, the compound before the results:

| Compound | inhibition at 0.1 µM ([2]; 100 nM, Jeko-1 cells, 24 hours) | inhibition at 10 µM ([2]; 10 μM, Jeko-1 cells, 24 hours) | IC50 [3] | IC50 [1] | IC50 [4] | inhibition at 0.1 µM [2] | inhibition at 10 µM [2] |
| --- | --- | --- | --- | --- | --- | --- | --- |
| CC(C)(C)OC(=O)N[C@H](C(=O)NCc1ccc2c(c1)CN(C1CCC(=O)NC1=O)C2=O)c1ccccc1 (stereo partly drawn) [Compound 4-87, Tert butyl ((1S)-2-((2-(2,6-dioxopiperidin-3-yl)-1-oxoisoindolin-5-yl)methyl)amino)-2-oxo-1-phenylethyl) carbamate] | 89% | 93% |  | 0.2 nM |  |  |  |
| CC(C)(C)OC(=O)N[C@H](C(=O)NCc1ccc2c(c1)CN(C1CCC(=O)NC1=O)C2=O)c1ccc(Cl)cc1 (stereo partly drawn) [Compound 4-150, Tert butyl ((1S)-1-(4-chlorophenyl)-2-((2-(2,6-dioxopyridin-3-yl)-1-oxoisoidoline-5-yl)methyl)amino)-2-oxoethyl) carbamate] | 90% | 99% | 9.2 nM | 3.9 nM | 6.5 nM |  |  |
| CC(C)(C)OC(=O)NC(C(=O)NCc1ccc2c(c1)CN(C1CCC(=O)NC1=O)C2=O)c1ccc(Cl)c(Cl)c1 (stereo not drawn) [Compound 4-151, Tert butyl (1-(3,4-dichlorophenyl)-2-((2-(2,6-dioxopyridin-3-yl)-1-oxoisoindoline-5-yl)methyl)amino)-2-oxoethyl) carbamate] | 77% | 95% | 11.6 nM | 1.3 nM | 7.8 nM |  |  |
| CC(C)(C)OC(=O)N[C@H](C(=O)NCc1ccc2c(c1)CN(C1CCC(=O)NC1=O)C2=O)c1ccc(F)c(Cl)c1 (stereo partly drawn) [Compound 4-152, Tert butyl (1-(3-chloro-4-fluorophenyl)-2-((2-(2,6-dioxopyridin-3-yl)-1-oxoisoindoline-5-yl)methyl)amino)-2-oxoethyl) carbamate] | 93% | 82% | 7.9 nM | 0.7 nM | 6.6 nM |  |  |
| O=C1CCC(N2Cc3cc(CNC(=O)[C@@H](NC(=O)OC4CCCC4)c4ccccc4)ccc3C2=O)C(=O)N1 (stereo partly drawn) [Compound 4-159, Cyclopentyl (1S)-2-((2-(2,6-dioxypiperidin-3-yl)-1-oxoisoindoline-5-yl)methyl)amino)-2-oxo-1-phenylethyl) carbamate] |  |  |  | 0.02 nM |  | 93% | 99% |
| CC(C)C1CC[C@H](C)C[C@@H]1OC(=O)N[C@H](C(=O)NCc1ccc2c(c1)CN(C1CCC(=O)NC1=O)C2=O)c1ccccc1 (stereo partly drawn) [Compound 4-175] |  |  |  | 0.03 nM |  | 93% | 90% |
| CN(C(=O)OC1CCCC1)[C@H](C(=O)NCc1ccc2c(c1)CN(C1CCC(=O)NC1=O)C2=O)c1ccccc1 (stereo partly drawn) [Compound 5-36, Cyclopentyl ((1S)-2-((2-(2,6-dioxypiperidin-3-yl)-1-oxoisoindoline-5-yl)methyl)amino)-2-oxo-1-phenylethyl) (methyl) carbamate] |  |  |  | 1 nM |  | 97% | 97% |
| CC(C)OC(=O)N[C@@H](CC1CCCCC1)C(=O)NCc1ccc2c(c1)CN(C1CCC(=O)NC1=O)C2=O (stereo partly drawn) [Compound 5-94, Isopropyl ((2S)-3-cyclohexyl-1-((2-(2,6-dioxypiperidin-3-yl)-1-oxoisoindolin-5-yl)methyl)amino)-1-oxopropan-2-yl) carbamate] |  |  | 12.8 nM |  | 7.4 nM | 85% | 95% |
